Patent US4626540A, “Substituted 1-amino-4-nitro-acridinones and methods of treating bacterial infections and leukemia with them” (Warner-Lambert Company, priority 1984, dated 1986)
Structures can show the parent of a compound that is named as a salt.

How the values were obtained:
Bacillus cereus = experiment: In vitro antibacterial (ABMF) microdilution test, Bacillus cereus; format: cell-based; conditions: Mueller-Hinton broth, 37° C., 16-24 hours, read-out: ABMF minimal inhibitory conc, B. cer.
Text: (§1) Still another test protocol is the in vitro antibacterial (ABMF) test which is a recognized standard microdilution susceptibility procedure in Mueller-Hinton broth against Gram-positive and Gram-negative bacterial test organisms. The procedure is a modification of a state-of-the-art procedure reported in Manual of Clinical Microbiology, Lennette, E. H., ed., by Barry, A. L. and C. Thornsberry at pages 463-474 and by Gavan, T. L. and A. L. Barry at pages 459-462, American Society for Microbiology, Washington, 1980.
(§2) In the test, a given bacterial culture is used to inoculate individual test wells of microdilution trays containing growth medium and test compound, the latter in a microdilution series: 1000, 333, 111, 37, 12, 4, 1.4, and 0.46 micrograms per milliliter. […] For convenience, values are reported for Escherichia coli, Corynebacterium Sp. ATCC 21698, Branhamella catarrhalis, Streptococcus pneumoniae, and Bacillus cereus.

[1] = test system: lymphocytic leukemia P388; experiment: In vivo lymphocytic leukemia P388 test; parameters: species or system CD2 F1 mice; conditions: Mus musculus, P388, ip, intraperitoneal, once daily for five days, survival time treated/control, read-out: P388 in vivo T/C × 100
Experimental: Another test protocol is the in vivo lymphocytic leukemia P388 test. the animals used are either male or female CD2 F1 mice, six or seven animals per test group. The tumor transplant is by intraperitoneal injection of dilute ascitic fluid containing cells of lymphocytic leukemia P388. The test compounds are administered intraperitoneally once daily for five consecutive days at various doses following tumor inoculation. The animals are weighed and survivors are recorded on a regular basis for 30 days. A compound is designated "toxic" if, at a given dose, all animals die prior to four days after the first injection of drug. A ratio of survival time for treated (T)/control (C) animals is calculated. A criterion for efficacy is a ratio T/C times 100 greater than or equal to 125. See Cancer Chemotherapy Reports, Part 3, 3, 1 (1972) for a comprehensive discussion of the protocol.

Escherichia coli = experiment: In vitro antibacterial (ABMF) microdilution test, Escherichia coli; format: cell-based; conditions: Mueller-Hinton broth, 37° C., 16-24 hours, read-out: ABMF minimal inhibitory conc, E. coli
Text: as §1, §2

[2] = test system: Corynebacterium Sp. ATCC 21698; experiment: In vitro antibacterial (ABMF) microdilution test, Corynebacterium Sp.; format: cell-based; conditions: ATCC21698, Mueller-Hinton broth, 37° C., 16-24 hours, read-out: ABMF minimal inhibitory conc, Coryn. Species
Text: as §1, §2

Streptococcus pneumoniae = experiment: In vitro antibacterial (ABMF) microdilution test, Streptococcus pneumoniae; format: cell-based; conditions: Mueller-Hinton broth, 37° C., 16-24 hours, read-out: ABMF minimal inhibitory conc, S. pneu.
Text: as §1, §2

[3] = test system: L1210 murine leukemia cell lines; experiment: In vitro antitumor screening (PDC test), L1210 murine leukemia cell growth; format: cell-based; conditions: Mus musculus, 72 h; L1210 cells, 37° C., three days; value is ID50 multiplied by 10^7
Experimental: Another test protocol is the in vitro antitumor screening (PDC test) of compounds of the present invention on L1210 murine leukemia cell lines. L1210 cells, a murine leukemia cell line, were grown in RPMI 1640 supplemented with 5% fetal bovine serum and gentamicin (50 μg/ml).
Drug dilutions were prepared in the apropriate solvent and 20 μl of each dilution were added to 24-well Linbro tissue culture plats, followed by the addition of M 2.0 ml of cell suspension containing 3×10^4 cells per ml. Solvent and medium controls were included in each test. After incubation at 37° C. for three days in 5% CO2, the contents of each well were removed and the cells counted in a ZBI Coulter counter. Percent growth was calculated relative to the controls and the levels of drug activity wre expressed as ID50 in moles per liter using probit paper.

Branhamella catarrhalis = experiment: In vitro antibacterial (ABMF) microdilution test, Branhamella catarrhalis; format: cell-based; conditions: Moraxella catarrhalis; Mueller-Hinton broth, 37° C., 16-24 hours; read-out: ABMF minimal inhibitory conc, B. cat.
Text: as §1, §2

HCT-8 cells = experiment: In vitro proliferating human colon adenocarcinoma (HCA) cell screen, HCT-8 cells; format: cell-based; conditions: 60-65 hours at 37° C., value is ID50 multiplied by 10^7;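 note: ID50 is the molar concentration giving 50% growth inhibition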
Experimental: One test protocol is the in vitro proliferating human colon adenocarcinoma (HCA) cell screen. In this test, HCT-8 cells (HCA cell line received from Yale University) are trypsinized using trypsin-EDTA. A single cell suspension is achieved by passing the cells through a 26-gauge needle with a 20-cc syringe. A cell suspension is prepared using RPMI 1640+10% FCS+50 μg/ml gentamicin sulfate with a cell concentration of approximately 5,000 cells/ml. The cell suspension is dispensed in Linbro 24-well plates; 1 ml/well. The plates are incubated for approximately 48 hours at 37° C. in a 5% CO2 atmosphere. At this time test compounds are added in the appropriate concentration. Ten μl of the appropriate dilution is added to each well for a titration test. The plates are reincubated an additional 60-65 hours at 37° C. in a 5% CO2 atmosphere. The cells are lysed using a mix of cationic surfactant, glacial acetic acid and sodium chloride. Two ml of the lysed cell suspension from each well is added to 8 ml of diluent. The number of nuclei is determined using a Coulter counter (ZBI model), and a percent growth for each drug concentration is calculated.

MIC (Bacillus cereus) [µg/mL]	MIC (Escherichia coli) [µg/mL]	MIC [2] [µg/mL]	MIC (Streptococcus pneumoniae) [µg/mL]	IC50 [3] [µM]	MIC (Branhamella catarrhalis) [µg/mL]	IC50 (HCT-8 cells) [µM]	SMILES	response vs control in vivo at 50 mg/kg [1] [%]	response vs control in vivo at 100 mg/kg [1] [%]	response vs control in vivo at 200 mg/kg [1] [%]	response vs control in vivo at 25 mg/kg [1] [%]	response vs control in vivo at 1.56 mg/kg ([1]; 1.56 mg/kg) [%]	response vs control in vivo at 3.12 mg/kg ([1]; 3.12 mg/kg) [%]	response vs control in vivo at 6.25 mg/kg ([1]; 6.25 mg/kg) [%]	response vs control in vivo at 12.5 mg/kg [1] [%]
> 1000	37	333	12.3	3.2	> 1000		CN(C)CCNc1ccc([N+](=O)[O-])c2c1c(=O)c1ccccc1n2C.CS(=O)(=O)O [Example 32, 1-[[2-(Dimethylamino)ethyl]amino]-10-methyl-4-nitro-9(10H)-acridinone, methanesulfonate (1:1)]	126	146						
4.1	4.1	< 0.46	1.4	0.42	1.4		CCN(CC)CCNc1ccc([N+](=O)[O-])c2[nH]c3ccc(OC)c(Cl)c3c(=O)c12 [Example 27, 1-Chloro-8-[[2-Diethylamino)ethyl]amino]-2-methoxy-5-nitro-9(10H)acridinone, methanesulfonate]								
333	12.3	1.4	< 0.46		12.3		COc1ccc2[nH]c3c([N+](=O)[O-])ccc(NCC[N+](C)(C)[O-])c3c(=O)c2c1 [Example 14, 1-[[2-(Dimethylamino)ethyl]amino]-7-methoxy-4-nitro-9(10H)-acridinone, N^ω -oxide, 3-chlorobenzoate salt]	157							
< 0.46	1.4	< 0.46	< 0.46	0.088	< 0.46		CCN(CC)CCNc1ccc([N+](=O)[O-])c2[nH]c3cccc(O)c3c(=O)c12.CS(=O)(=O)O [Example 29, 1-[[2-(Diethylamino)ethyl]amino]-8-hydroxy-4-nitro-9-(10H)-acridinone, methanesulfonate]								
> 1000	> 1000	1000	> 1000		> 1000		CCN(CC)CCNc1ccc([N+](=O)[O-])c2c1c(=O)c1cc(OC)ccc1n2C.CS(=O)(=O)O [Example 31, 1-[[2-(Diethylamino)ethyl]amino]-7-methoxy-10-methyl-4-nitro-9(10H)-acridinone, methanesulfonate (1:1)]		128	128					
12.3	12.3	< 0.46	< 0.46	0.45	< 0.46		CCN(CC)CCNc1ccc([N+](=O)[O-])c2[nH]c3ccccc3c(=O)c12.CS(=O)(=O)O [Example 1, 1-[[2-(Diethylamino)ethyl]amino]-4-nitro-9-(10H)-acridinone, methanesulfonate (1:1)]	172			145				
111	111	333	333	0.015	333		CN(C)CCCNc1ccc([N+](=O)[O-])c2[nH]c3ccc(OC(=O)C(C)(C)C)cc3c(=O)c12 [Example 25, [8-[[3-(Dimethylamino)propyl]amino]-9,10-dihydro-5-nitro-9-oxo-2-acridinyl]-2,2-dimethylpropanoate, methanesulfonate (1:1), hemihydrate]					156	173	214	248
111	111	111	37		111		CCN(CC)CCNc1ccc([N+](=O)[O-])c2c1c(=O)c1ccccc1n2C [Example 30, 1-[[2-(Diethylamino)ethyl]amino]-10-methyl-4-nitro-9(10H)-acridinone, methanesulfonate (1:1), hydrate (1:1)]			147					
> 1000	> 1000	0.46	1000		> 1000	1.95	CCCOc1ccc2[nH]c3c([N+](=O)[O-])ccc(NCCN(CC)CC)c3c(=O)c2c1.CS(=O)(=O)O [Example 5, 1-[[2-(Diethylamino)ethyl]amino]-4-nitro-7-propoxy-9(10H)-acridinone, methanesulfonate]	146	164	186	136				122
				1.8		2.27	COc1ccc2c(c1)c(=O)c1c(NCCN(C)C)ccc([N+](=O)[O-])c1n2C [Example 33]		137	144					
1.4	1.4	< 0.46	< 0.46	0.36	< 0.46		CCN(CC)CCNc1ccc([N+](=O)[O-])c2[nH]c3cc(O)ccc3c(=O)c12.CS(=O)(=O)O [Example 28, 1-[[2-(Diethylamino)ethyl]amino]-6-hydroxy-4-nitro-9(10H)acridinone, methanesulfonate (1:1)]								

SMILES	MIC (Bacillus cereus) [µg/mL]	MIC (Escherichia coli) [µg/mL]	MIC [2] [µg/mL]	MIC (Streptococcus pneumoniae) [µg/mL]	IC50 [3] [µM]	MIC (Branhamella catarrhalis) [µg/mL]	IC50 (HCT-8 cells) [µM]	response vs control in vivo at 50 mg/kg [1] [%]	response vs control in vivo at 100 mg/kg [1] [%]	response vs control in vivo at 200 mg/kg [1] [%]	response vs control in vivo at 25 mg/kg [1] [%]	response vs control in vivo at 1.56 mg/kg ([1]; 1.56 mg/kg) [%]	response vs control in vivo at 3.12 mg/kg ([1]; 3.12 mg/kg) [%]	response vs control in vivo at 6.25 mg/kg ([1]; 6.25 mg/kg) [%]	response vs control in vivo at 12.5 mg/kg [1] [%]
CCCCOc1ccc2[nH]c3c([N+](=O)[O-])ccc(NCCN(CC)CC)c3c(=O)c2c1.CS(=O)(=O)O [Example 6, 7-Butoxy-1-[[2-(diethylamino)ethyl]amino]-4-nitro-9-(10H)-acridinone, methanesulfonate]	> 1000	> 1000	> 1000	> 1000	0.58	> 1000		160			139				
CCCCOc1ccc2[nH]c3c([N+](=O)[O-])ccc(NCCN(C)C)c3c(=O)c2c1.CS(=O)(=O)O [Example 11, 7-Butoxy-1-[[2-(dimethylamino)ethyl]amino]-4-nitro-9(10H)-acridinone, methanesulfonate]	> 1000	> 1000	> 1000	> 1000	1.6	> 1000		175			130				
